#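 Compound exposure: 48 hours, 5 concentrations, 96-well plates. Here, GI50 denotes the concentration required for 50% inhibition of growth.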 Active and inactive are the calls of the source. No stated cut-off is given here; in the data, active = GI50 up to about 1.1 µM and inactive = higher.
# Tested on: BT-549
# Test: DTP human tumour cell line panel, 48 h
row,SMILES,GI50
1,C1CNCCNCCN1,> 100 µM (inactive)
2,Cc1c(C(=O)OCc2ccccc2)[n+]([O-])c2ccccc2[n+]1[O-],57.9 µM (inactive)
3,Cc1ccc(N)cc1.O=S(=O)(O)/C(=C\c1ccccc1)c1ccccc1,> 100 µM (inactive)
4,O=c1c2cc([N+](=O)[O-])cnc2sn1-c1ccc(Oc2ccccc2)cc1,52.8 µM (inactive)
5,COc1nc(C#CCCCC#N)nc(OC)n1,15.9 µM (inactive)
6,Cc1cc(-c2nc3cc(F)ccc3s2)ccc1NC(=O)C(C)N (stereo not given),4.24 µM (inactive)
7,Clc1cc(Cl)cc(/N=C/C=C/Nc2cc(Cl)cc(Cl)c2)c1,43.3 µM (inactive)
8,Cc1ccc(C(=N)c2ccccc2Cc2cccc3ccccc23)c2ccccc12,> 100 µM (inactive)
9,CN(C)C(=O)C(F)(F)C(c1ccccc1)C1C(=O)N(C)C(=O)N(C)C1=O (stereo not given),> 100 µM (inactive)
10,N/C(=N\c1ccccc1)c1ccccc1N,> 100 µM (inactive)
11,CN(C)CCCNC(=O)N/N=C/c1ccc([N+](=O)[O-])cc1,> 100 µM (inactive)
12,Cc1cc2c(cc1Cl)SC(NNC(=O)c1ccccc1)=NS2(=O)=O,> 10 µM (inactive)
13,C=CC1(CCC(Br)C(C)(C)Cl)CO1 (stereo not given),> 10 µM (inactive)
14,O=C(Cc1ccccc1)NNc1nc(NNC(=O)c2ccncc2)nc(Nc2ccc([N+](=O)[O-])cc2)n1,9.51 µM (inactive)
15,O=C(c1ccccc1)N1OCCC1Nc1ccc(Br)cc1 (stereo not given),> 10 µM (inactive)
16,O=C1CC(Cc2n[nH]c3c2CCCC3)CC(=O)N1,> 100 µM (inactive)
17,O=C1/C(=C/c2ccccc2)CCCC1CN1CCCCC1 (stereo not given),2.95 µM (inactive)
18,CN(CCCNC(=O)c1nn(-c2ccc(Cl)cc2Cl)c2c1Cc1ccccc1-2)CCCNC(=O)c1nn(-c2ccc(Cl)cc2Cl)c2c1Cc1ccccc1-2,2.03 µM (inactive)
19,O=C1C(Cl)=C(N2CCC[C@@H]2CO)C(=O)c2c(O)ccc(O)c21,1.9 µM (inactive)
20,C[C@H](NC(=O)C(C)(Cc1ccc(O)cn1)NC(=O)c1ccccc1)c1ccccc1 (stereo not given in full),> 100 µM (inactive)

row,SMILES,GI50
1,O=C(COC(c1ccc(F)cc1)c1ccc(F)cc1)N1CCN(CCCc2ccccc2)CC1,3.02 µM (inactive)
2,CC12CP(=O)(O)CC1C2(Cl)Cl (stereo not given),> 100 µM (inactive)
3,COc1ccc(-c2cc(-c3ccc(Cl)cc3)n(C3OC(CO)C(O)C(O)C3O)c(=S)c2C#N)cc1 (stereo not given),35.2 µM (inactive)
4,C[N+](C)(N)Cc1nc(-c2ccc(Cl)cc2)no1,> 100 µM (inactive)
5,CCC1C(NC(=O)OC)C(=O)N1[C@@H](C)c1ccccc1 (stereo not given in full),> 100 µM (inactive)
6,Cc1noc(-c2ccc(C(=O)O)[nH]2)c1Br,> 100 µM (inactive)
7,O=C(O)[C@@H]1C[C@@H](O)CN1C(=O)OCc1ccccc1,> 100 µM (inactive)
8,COc1ccc(OC)c(CSc2ccc(OC)c(OC)c2)c1,> 85.1 µM (inactive)
9,CC1CCC(=O)C(C(=O)CC2CC(=O)NC(=O)C2)C1 (stereo not given),> 100 µM (inactive)
10,COc1ccc(C(=C(Cl)c2ccccc2)c2ccc(OC)cc2)cc1,> 100 µM (inactive)
11,SC1=NNC2(C(S)=N1)c1ccccc1-c1ccccc12,> 10 µM (inactive)
12,COc1c(OC(C)C)c(OC(C)C)c2oc(=O)n3c2c1C(c1ccccc1-n1c(C)ccc1C)C=C3 (stereo not given),> 100 µM (inactive)
13,COC(=O)[C@]1(Cc2ccc3ccccc3c2)CCCCCCN1C(=O)c1ccccc1,> 39.5 µM (inactive)
14,COC(=O)NC(Nc1ccc(Cl)cc1Cl)(C(F)(F)F)C(F)(F)F,17.1 µM (inactive)
15,O=C1NC(=O)C2(CCC(O)C2)c2cc[n+]([O-])cc21 (stereo not given),> 100 µM (inactive)
16,Cc1ccc([N+](=O)[O-])cc1S(=O)(=O)Nc1ccc(C2=NN(S(=O)(=O)c3cc([N+](=O)[O-])ccc3C)C(c3ccccc3O)C2)cc1 (stereo not given),> 100 µM (inactive)
17,Nc1nc(=O)c2cc(NCc3ccc(C(=O)NC(CCC(=O)O)C(=O)O)cc3)ccc2[nH]1 (stereo not given),> 100 µM (inactive)
18,CC(CC(N)C(=O)O)C(=O)O (stereo not given),> 100 µM (inactive)
19,N#Cc1c(Cl)cccc1Oc1ccc(S(=O)(=O)N/C(=N\O)Nc2ccc(Cl)cc2)cc1,16.4 µM (inactive)
20,O=C(CCCCCCC(=O)Nc1cccnc1)NO [PYROXAMIDE],> 100 µM (inactive)

# — ChEMBL document CHEMBL1201862, “PubChem BioAssay data set” (2004)
